{"source": "patent US11407729B2", "about": "“Quinoline and quinazoline compounds and methods of use thereof” (Stingray Therapeutics, Inc., priority 2019, dated 2022)", "note": "Counter-ions that a name gives are not always drawn."}
{"biological_target": "T1, ENPP1 protein (Homo sapiens, UniProt P22413)", "T1 sequence (P22413 1-925)": "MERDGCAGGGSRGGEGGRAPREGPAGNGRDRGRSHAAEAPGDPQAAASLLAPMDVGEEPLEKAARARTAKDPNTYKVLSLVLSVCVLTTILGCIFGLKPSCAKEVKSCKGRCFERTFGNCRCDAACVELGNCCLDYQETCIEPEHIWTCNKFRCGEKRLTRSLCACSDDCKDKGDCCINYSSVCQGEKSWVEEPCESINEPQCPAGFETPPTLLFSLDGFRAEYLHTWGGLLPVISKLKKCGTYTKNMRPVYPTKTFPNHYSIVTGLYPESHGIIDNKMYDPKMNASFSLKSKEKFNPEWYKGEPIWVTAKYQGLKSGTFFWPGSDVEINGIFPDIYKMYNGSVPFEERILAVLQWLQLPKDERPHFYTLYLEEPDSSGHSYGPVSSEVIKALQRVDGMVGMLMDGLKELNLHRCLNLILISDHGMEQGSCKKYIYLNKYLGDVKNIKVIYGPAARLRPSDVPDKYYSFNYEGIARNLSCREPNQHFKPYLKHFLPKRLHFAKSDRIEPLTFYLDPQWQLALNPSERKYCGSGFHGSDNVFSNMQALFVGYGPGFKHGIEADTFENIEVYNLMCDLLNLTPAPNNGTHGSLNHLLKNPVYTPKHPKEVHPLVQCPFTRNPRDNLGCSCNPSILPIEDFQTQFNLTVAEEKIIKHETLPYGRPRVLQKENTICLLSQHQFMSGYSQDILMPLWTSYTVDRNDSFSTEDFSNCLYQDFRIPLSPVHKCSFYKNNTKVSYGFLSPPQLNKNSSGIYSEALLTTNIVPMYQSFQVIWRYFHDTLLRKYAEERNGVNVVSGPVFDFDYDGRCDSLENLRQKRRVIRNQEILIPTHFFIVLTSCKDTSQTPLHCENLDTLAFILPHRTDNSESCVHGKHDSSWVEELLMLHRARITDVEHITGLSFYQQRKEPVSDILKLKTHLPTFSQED", "assay": "ENPP1 Inhibition Assay", "format": "biochemical", "parameters": "purchased R&D 6136-EN-010", "details": "substrate Thymidine 5′-monophosphate p-nitrophenol ester; 37° C. for 45 minutes; absorbance at 405 nm", "protocol": "1. ENPP1 Inhibition Assay\nAn eight point serial dilution of drugs was prepared in 10× in assay buffer with the final assay concentrations starting at 10 μM, 3 μM, 1 μM, 0.3 μM . . . 0 μM. A dilution of DMSO was included as a control. The assay plate was set up as follows with each well in duplicate: 81 μL assay buffer+10 μL ENPP1 inhibitor or DMSO+5 μL Substrate+4 μL Enzyme. Both the enzyme and substrate were added to opposite sides of the well to ensure that there was no interaction until all wells had both components. The plate was then centrifuged gently for 10 seconds, followed by an incubation at 37° C. for 45 minutes.\nIC50 values are determined using GraphPad Prism 5 software. The data were entered as an X-Y plot into the software as percent inhibition for each concentration of the drug. The concentration values of the drug were log transformed and the nonlinear regression was carried out using the “sigmoidal dose-response (variable slope)” option within the GraphPad software to model the data and calculate IC50 values.", "units": {"IC50": "nM"}}
{"smiles": "COc1cc2ncnc(N3CCC(NS(N)(=O)=O)CC3)c2cc1OC", "note": "[Compound I-29, N—(N-(1-(6,7-dimethoxyquinazolin-4-yl)piperidin-4-yl)sulfuricdiamide formate salt]", "IC50": 420}
{"smiles": "COc1cc2nccc(N3CCC(C4(CNS(N)(=O)=O)CC4)CC3)c2cc1OCF", "note": "[Compound I-37, N-((1-(1-(6-(fluoromethoxy)-7-methoxyquinolin-4-yl)piperidin-4-yl)cyclopropyl)methyl)sulfuricdiamide]", "IC50": 1.09}
{"smiles": "COc1cc2nccc(N3CCC(C(C)CN(C4CC4)S(N)(=O)=O)CC3)c2cc1OC", "note": "(stereo not drawn) [Compound I-16, N-cyclopropyl-N-(2-(1-(6,7-dimethoxyquinolin-4-yl)piperidin-4-yl)propyl)aminosulfonamide formate salt]", "IC50": 409}
{"smiles": "COc1cc2nccc(N3CCC(C4(CNS(N)(=O)=O)CC4)CC3)c2cc1OC", "note": "[Compound I-22]", "IC50": 9.09}
{"smiles": "COCOc1cc2c(N3CCN(C4(CNS(N)(=O)=O)CC4)CC3)ncnc2cc1OC", "note": "[Compound I-33, N-((1-(4-(7-methoxy-6-(methoxymethoxy)quinazolin-4-yl)piperazin-1-yl)cyclopropyl)methyl)sulfuricdiamide]", "IC50": 158}
{"smiles": "COc1cc2ncnc(N3CCC(C4(CNS(N)(=O)=O)CC4)CC3)c2cc1OC", "note": "[Compound I-27, N—(N-((1-(1-(6,7-dimethoxyquinazolin-4-yl)piperidin-4-yl)cyclopropyl)methyl)sulfuricdiamide formate salt]", "IC50": 11.5}
{"smiles": "COCOc1cc2c(N3CCC(C(C)CNS(N)(=O)=O)CC3)ncnc2cc1OC", "note": "(stereo not drawn) [Compound I-28]", "IC50": 26.2}
{"smiles": "CNS(=O)(=O)NCC(C)C1CCN(c2ccnc3cc(OC)c(OC)cc23)CC1", "note": "(stereo not drawn) [Compound I-15, N-(2-(1-(6,7-dimethoxyquinolin-4-yl)piperidin-4-yl)propyl)Methyaminosulfonamide]", "IC50": 3480}
{"smiles": "COc1cc2nccc(N3CCN(C(C)CNS(N)(=O)=O)CC3)c2cc1OC", "note": "(stereo not drawn) [Compound I-20, N-(2-(4-(6,7-dimethoxyquinolin-4-yl)piperazin-1-yl)propyl)aminosulfonamide formate salt]", "IC50": 14}
{"smiles": "COc1cc2nccc(N3CCC(NS(N)(=O)=O)CC3)c2cc1OC", "note": "[Compound I-23, N—(N-(1-(6,7-dimethoxyquinolin-4-yl)piperidin-4-yl)sulfuricdiamide formate salt]", "IC50": 897}
{"smiles": "COc1cc2ncnc(N3CCN(C4(CNS(N)(=O)=O)CC4)CC3)c2cc1OCF", "note": "[Compound I-34, N-((1-(4-(6-(fluoromethoxy)-7-methoxyquinazolin-4-yl)piperazin-1-yl)cyclopropyl)methyl)sulfuricdiamide]", "IC50": 133}
{"smiles": "COc1cc2ncnc(N3CCC(C(C)(C)CNS(N)(=O)=O)CC3)c2cc1OC", "note": "[Compound I-26, N-(2-(1-(6,7-dimethoxyquinazolin-4-yl)piperidin-4-yl)-2-methylpropyl)sulfuricdiamide formate salt]", "IC50": 2.39}
{"smiles": "COc1cc2nccc(N3CCC(C(=O)NC4(C#N)CC4)CC3)c2cc1OC", "note": "[Compound I-18, N-(1-cyanocyclopropyl)-1-(6,7-dimethoxyquinolin-4-yl)piperidine-4-carboxamide]", "IC50": "> 10000"}
{"smiles": "COc1cc2nccc(N3CCC(C(C)CNS(C)(=O)=O)CC3)c2cc1OC", "note": "(stereo not drawn) [Compound I-19, N-(2-(1-(6,7-dimethoxyquinolin-4-yl)piperidin-4-yl)propyl)methanesulfonamide]", "IC50": 3810}
{"smiles": "COc1cc2nccc(N3CCC(C(C)CNS(N)(=O)=O)CC3)c2cc1O", "note": "(stereo not drawn) [Compound I-09, N—(N-(2-(1-(6-hydroxy-7-methoxyquinolin-4-yl)piperidin-4-yl)propyl)sulfuricdiamide formate salt]", "IC50": 1880}
{"smiles": "COc1cc2nccc(N3CCC(C4CCCN(S(N)(=O)=O)C4)CC3)c2cc1OC", "note": "(stereo not drawn) [Compound I-17, 6,7-dimethoxy-4-(1-(aminosulfonyl)-[3,4′-bipiperidin]-1′-yl)quinoline formate salt]", "IC50": 75.8}
{"smiles": "COc1cc2ncnc(N3CCC(CCNS(N)(=O)=O)CC3)c2cc1OP(=O)(O)O", "note": "[Compound I-03, sodium 7-methoxy-4-(4-(2-(sulfamoylamino)ethyl)piperidin-1-yl)quinazolin-6-yl phosphate]", "IC50": 2870}
{"smiles": "COCOc1cc2c(N3CCC(C4(CNS(N)(=O)=O)CC4)CC3)ncnc2cc1OC", "note": "[Compound I-35, N-((1-(1-(7-methoxy-6-(methoxymethoxy)quinazolin-4-yl)piperidin-4-yl)cyclopropyl)methyl)sulfuricdiamide]", "IC50": 49.2}
{"smiles": "CCC(CNS(N)(=O)=O)C1CCN(c2ncnc3cc(OC)c(OC)cc23)CC1", "note": "(stereo not drawn) [Compound I-25, N—(N-(2-(1-(6,7-dimethoxyquinazolin-4-yl)piperidin-4-yl)butyl)sulfuricdiamide formate salt]", "IC50": 5.05}
{"smiles": "COCCOc1cc2c(N3CCC(C(C)CNS(N)(=O)=O)CC3)ccnc2cc1OC", "note": "(stereo not drawn) [Compound I-10, N-(2-(1-(7-methoxy-6-(2-methoxyethoxy)quinolin-4-yl)piperidin-4-yl)propyl)aninosulfonamide formate salt]", "IC50": 156}
{"smiles": "COc1cc2nccc(N3CCC(C(C)(C)CNS(N)(=O)=O)CC3)c2cc1OC", "note": "[Compound I-14, N-(2-(1-(6,7-dimethoxyquinolin-4-yl)piperidin-4-yl)-2-methylpropyl)sulfuricdiamide hydro chloride salt]", "IC50": 35.2}
{"smiles": "COc1cc2nccc(N3CCC(N(C4CC4)S(N)(=O)=O)CC3)c2cc1OC", "note": "[Compound I-24, N—(N-cyclopropyl-N-(1-(6,7-dimethoxyquinolin-4-yl)piperidin-4-yl)sulfuricdiamide formate salt]", "IC50": 953}
{"smiles": "COc1cc2nccc(N3CCN(C4(CNS(N)(=O)=O)CC4)CC3)c2cc1OC", "note": "[Compound I-31, N-((1-(4-(6,7-dimethoxyquinolin-4-yl)piperazin-1-yl)cyclopropyl)methyl)sulfuricdiamide]", "IC50": 23.7}
{"smiles": "COc1ccc2c(N3CCC(C(C)CNS(N)(=O)=O)CC3)ccnc2c1", "note": "(stereo not drawn) [Compound I-07, N-(2-(1-(7-methoxyquinolin-4-yl)piperidin-4-yl)propyl)aminosulfonamide]", "IC50": 250}
{"smiles": "COc1ccc2nccc(N3CCC(C(C)CNS(N)(=O)=O)CC3)c2c1", "note": "(stereo not drawn) [Compound I-08, N-(2-(1-(6-methoxyquinolin-4-yl)piperidin-4-yl)propyl)aminosulfonamide]", "IC50": 224}
{"smiles": "COCOc1cc2c(N3CCC(C(C)(C)CNS(N)(=O)=O)CC3)ncnc2cc1OC", "note": "[Compound I-36, N-(2-(1-(7-methoxy-6-(methoxymethoxy)quinazolin-4-yl)piperidin-4-yl)-2-methylpropyl)sulfuricdiamide]", "IC50": 52.6}
{"smiles": "COc1cc2nccc(N3CCC(C(C)CNS(N)(=O)=O)CC3)c2cc1OCCO", "note": "(stereo not drawn) [Compound I-11, N-(2-(1-(6-(2-hydroxyethoxy)-7-methoxyquinolin-4-yl)piperidin-4-yl)propyl)aminosulfonamide formate salt]", "IC50": 4490}
{"smiles": "COc1cc2ncnc(N3CCN(C4(CNS(N)(=O)=O)CC4)CC3)c2cc1OC", "note": "[Compound I-32, N-((1-(4-(6,7-dimethoxyquinazolin-4-yl)piperazin-1-yl)cyclopropyl)methyl)sulfuricdiamide]", "IC50": 55.6}
{"smiles": "COc1cc2nccc(N3CCN(CCNS(N)(=O)=O)[C@H](C)C3)c2cc1OC", "note": "[Compound I-21, (R)—N-(2-(4-(6,7-dimethoxyquinolin-4-yl)-2-methylpiperazin-1-yl)ethyl)aminosulfonamide formate salt]", "IC50": 344}
{"smiles": "COc1cc2ncnc(N3CCC(N(C4CC4)S(N)(=O)=O)CC3)c2cc1OC", "note": "[Compound I-30]", "IC50": 5610}
